pIC50: −log10 of the molar value.
Key:
transgenic hCETP mice = assay: In vivo activity in transgenic hCETP mice (lipoproteins and triglycerides in serum); conditions: 30 ppm via the feed, after one week
Protocol: In vivo Activity in Transgenic hCETP Mice
The substances to be tested were administered to transgenic mice, which were bred in our own laboratory (Dinchuck, Hart, Gonzalez, Karmann, Schmidt, Wirak; BBA (1995), 1295, 301), via the feed. Prior to the beginning of the experiment, blood samples were taken retro-orbitally from the mice to determine cholesterol and triglycerides in the serum. The serum was obtained as described above for hamsters by incubation at 4° C. overnight and subsequent centrifugation at 6000×g. After one week, blood samples were again taken from the mice to determine lipoproteins and triglycerides. The change of the measured parameters are expressed as a change in percent based on the initial value.

CETP activity = assay: Ex vivo activity: CETP activity in serum of treated hamsters; conditions: Syrian gold hamsters; for ED50 for ex vivo activity: CETP activity in serum; for % inhibition at 3 mg/kg: ex vivo CETP activity in serum
Protocol: Ex vivo Activity of the Compounds According to the Invention
Syrian gold hamsters, which have been bred in our own laboratory, are anaesthetized after 24 hours of fasting (0.8 mg/kg of atropine, 0.8 mg/kg of Ketavet® s.c., 30′ later 50 mg/kg of nembutal i.p.). The jugular vein is subsequently exposed and cannulated. The test substance is dissolved in a suitable solvent (usually adalate placebo solution: 60 g of glycerol, 100 ml of H2O, ad 1000 ml PEG-400) and administered to the animals via a PE catheter, which is introduced into the jugular vein. The same volume of solvent without test substance is administered to the control animals. The vein is subsequently tied off and the wound is closed.
The test substances can also be administered p.o. by dissolving the substances in DMSO and suspending them in 0.5% tylose and administering them using a pharyngeal tube. Identical volumes of solvent without test substance are administered to the control animals.
At different intervals—up to 24 hours after the administration—blood samples are taken from the animals by puncture of the retro-orbital venous plexus (approximately 250 μl). Coagulation is completed by incubation at 4° C. overnight, and the samples are subsequently centrifuged at 6000×g for 10 minutes. The CETP activity is determined in the resulting serum using the modified CETP test. The transfer of ^3H-cholesterol ester from HD-lipoproteins to biotinylated LD-lipoproteins is measured as described above for the CETP test.
The reaction is terminated by addition of Streptavidin-SPA® beads (Amersham), and the transferred radioactivity is directly determined in a liquid scintillation counter.
The test protocol is carried out as described under “CETP test”. However, to test the sera, 10 μl of CETP are replaced by 10 μl of the appropriate serum samples. Corresponding incubations of sera of untreated animals serve as controls.
The activity that is transferred in the control experiments using control sera is classified as 100% transfer. The substance concentration at which this transfer is reduced by half is stated as the ED50 value.

Syrian gold hamsters = assay: In vivo activity: HDL increase after oral administration to hamsters; conditions: perorally
Protocol: In vivo Activity of the Compounds According to the Invention
In experiments for assessing the oral activity on lipoproteins and triglycerides, test substance, dissolved in DMSO and suspended in 0.5% tylose, is administered perorally by means of a pharyngeal tube to Syrian gold hamsters which have been bred in our own laboratory. To determine the CETP activity, blood samples (approximately 250 μl) are taken by retro-orbital puncture prior to the start of the experiment. The test substances are subsequently administered perorally using a pharyngeal tube. Identical volumes of solvent without test substance are administered to the control animals. […]
Coagulation is completed by incubation at 4° C. overnight, and the samples are subsequently centrifuged at 6000×g for 10 minutes. The content of cholesterol and triglycerides in the resulting serum is assessed using modified commercially available enzyme tests (cholesterol enzymatic 14366 Merck, triglycerides 14364 Merck). […]
100 μl of serum dilution and 100 μl of test substance are transferred into 96-well-plates and incubated at room temperature for 10 minutes. The optical density is subsequently determined at a wavelength of 492 nm using an automatic plate reader.
The triglyceride and cholesterol concentrations of the samples are determined with the aid of a standard curve measured in parallel. […]

[1] = target: T1, cholesterol ester transfer protein (CETP) (Homo sapiens, UniProt P11597); assay: CETP inhibition test (transfer of 3H-cholesterol ester from HDL to biotinylated LDL, SPA); type: biochemical; conditions: CETP partially purified from human plasma; 37° C., 18 h
T1 construct: CETP is obtained in partially purified form from human plasma by differential centrifugation and column chromatography; from tissue; host or cells: human plasma
T1 sequence (P11597 18-493): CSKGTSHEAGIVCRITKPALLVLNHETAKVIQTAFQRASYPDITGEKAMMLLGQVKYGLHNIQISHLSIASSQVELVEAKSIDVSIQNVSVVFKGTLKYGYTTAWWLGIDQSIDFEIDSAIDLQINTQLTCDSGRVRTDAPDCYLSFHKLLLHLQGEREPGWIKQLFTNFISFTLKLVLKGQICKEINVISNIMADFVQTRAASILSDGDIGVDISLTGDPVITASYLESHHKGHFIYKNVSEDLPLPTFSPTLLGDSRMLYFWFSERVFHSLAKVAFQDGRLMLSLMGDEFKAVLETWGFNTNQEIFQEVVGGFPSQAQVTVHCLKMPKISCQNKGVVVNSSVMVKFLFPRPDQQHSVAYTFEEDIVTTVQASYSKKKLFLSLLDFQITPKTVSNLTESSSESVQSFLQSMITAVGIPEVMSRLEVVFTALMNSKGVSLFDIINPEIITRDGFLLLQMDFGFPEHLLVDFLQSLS
Protocol: CETP is obtained in partially purified form from human plasma by differential centrifugation and column chromatography and used for the test. For this purpose, human plasma is adjusted to a density of 1.21 g per ml using NaBr and centrifuged at 50,000 rpm at 4° C. for 18 h. The bottom fraction (d>1.21 g/ml) is applied to a Sephadex®Phenyl-Sepharose 4B (Pharmacia) column, washed with […]/0.001 M TrisHCl pH 7.4 and subsequently eluted using dist. water. The CETP-active fractions are pooled, dialysed against 50 mM Na-acetate pH 4.5 and applied to a CM-Sepharose® (Pharmacia) column. Elution is subsequently carried out using a linear gradient (0-1 M NaCl). The pooled CETP fractions are dialysed against 10 mM TrisHCl pH 7.4 and subsequently purified further by chromatography over a Mono Q® column (Pharmacia).
Preparation of Radioactively Labelled HDL
50 ml of fresh human EDTA plasma is adjusted to a density of 1.12 using NaBr and centrifuged at 4° C. in a Ty 65 rotor at 50,000 rpm for 18 h. The upper phase is used to obtain cold LDL. […]
To assess the CETP activity, the transfer of ^3H-cholesterol ester from human HD-lipoproteins to biotinylated LD-lipoproteins is measured.
The reaction is terminated by addition of Streptavidin-SPA® beads (Amersham) and the transferred radioactivity is directly measured in a liquid scintillation counter. […]

CC(C)c1cc2c(c(-c3ccc(F)cc3)c1[C@@H](F)c1ccc(C(F)(F)F)cc1)[C@@H](O)CC1(CCC1)C2 [Example 15, (S)-8-Hydroxy-1-(4-fluorophenyl)-2-[(S)-fluoro-(4-trifluoromethyl-phenyl)-methyl]-3-isopropyl-6-spiro-cyclobutyl-5,6,7,8-tetrahydronaphthalene]
HDL, change in percent based on the initial value (transgenic hCETP mice): +60% | LDL, change in percent based on the initial value (transgenic hCETP mice): −18% | Triglycerides, change in percent based on the initial value (transgenic hCETP mice): −15%

CC(C)c1cc2c(c(-c3ccc(F)cc3)c1[C@@H](F)c1ccc(C(F)(F)F)cc1)[C@@H](O)CC(C)(C)C2 [Example 25]
ED50 for ex vivo activity (CETP activity): <0.3 mg/kg | % inhibition at 3 mg/kg (CETP activity): 83.1% | % HDL increase (Syrian gold hamsters; dose 2 × 1 mg/kg): +15% | pIC50 [1]: 8.52

O[C@H]1CC2(CCC2)Cc2cc(C3CCCC3)c([C@@H](F)c3ccc(C(F)(F)F)cc3)c(-c3ccc(F)cc3)c21 [Example 31]
ED50 for ex vivo activity (CETP activity): <0.3 mg/kg | % inhibition at 3 mg/kg (CETP activity): 72.3% | % HDL increase (Syrian gold hamsters; dose 2 × 0.3 mg/kg): +19% | pIC50 [1]: 8.57

Reference: patent US6586613B1, “Substituted tetrahydronaphthaline and analogous compounds” (Bayer Aktiengellschaft, priority 1997, dated 2003)
